{"source": "patent US20220330549A1", "about": "“USE OF N-BENZYLBENZAMIDE-BASED COMPOUND AS HERBICIDE” (Northwest A&F University, priority 2020, published 2022)", "format_in_all_cases": "in vivo", "key": {"[1]": {"test_system": "Digitaria sanguinalis", "assay": "Herbicidal activity test for indoor pre-emergence soil treatment", "conditions": "150 g a.i./ha, visual inspection 21 days after treatment", "method_in_brief": "(§1)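 Pre-emergence soil spray per NY/T 1155.3-2006: weed seeds sown in moistened neutral sandy loam (organic content ≤2%), covered with 0.5–2.0 cm soil, then sprayed 24 h later with a water-diluted 10% emulsifiable concentrate at 150 g(a.i.)/ha. Visual rating after 21 days on a 1–9 scale.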"}, "[2]": {"test_system": "Amaranthus retroflexus", "assay": "Herbicidal activity test for indoor pre-emergence soil treatment", "conditions": "150 g a.i./ha, visual inspection 21 days after treatment", "method_in_brief": "as §1"}, "[3]": {"test_system": "Humulus scandens", "assay": "Herbicidal activity test for indoor pre-emergence soil treatment", "conditions": "150 g a.i./ha, visual inspection 21 days after treatment", "method_in_brief": "as §1"}, "[4]": {"test_system": "Broadleaf weed", "assay": "Post-emergence herbicidal activity test in a paddy field", "conditions": "150 g a.i./ha (penoxsulam control 250 g(a.i.)/h)", "method_in_brief": "(§2)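 Efficacy was visually estimated 15 and 30 days after spraying, grading weed coverage relative to an untreated neighbouring plot (level 2 = 0 to 2.5%, level 9 = 67.6 to 100%). Treatments were 150 g(a.i.)/ha from 10% emulsifiable concentrates applied at the 4-5 leaf rice stage, four repeats of 50 m^2 each.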"}, "[5]": {"test_system": "Gramineae", "assay": "Post-emergence herbicidal activity test in a paddy field", "conditions": "150 g a.i./ha (penoxsulam control 250 g(a.i.)/h)", "method_in_brief": "as §2"}, "[6]": {"test_system": "Cyperaceae", "assay": "Post-emergence herbicidal activity test in a paddy field", "conditions": "150 g a.i./ha (penoxsulam control 250 g(a.i.)/h)", "method_in_brief": "as §2"}, "[7]": {"test_system": "green bristlegrass", "assay": "Herbicidal activity test for indoor pre-emergence soil treatment", "conditions": "150 g a.i./ha, visual inspection 21 days after treatment", "method_in_brief": "as §1"}, "[8]": {"test_system": "Barnyard grass", "assay": "Herbicidal activity test for indoor pre-emergence soil treatment", "conditions": "150 g a.i./ha, visual inspection 21 days after treatment", "method_in_brief": "as §1"}, "[9]": {"test_system": "Piemarker", "assay": "Herbicidal activity test for indoor pre-emergence soil treatment", "conditions": "150 g a.i./ha, visual inspection 21 days after treatment", "method_in_brief": "as §1"}, "[10]": {"test_system": "goosegrass", "assay": "Field test for weed control in a corn field", "conditions": "150 g a.i./ha, after treatment", "method_in_brief": "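Weed control efficacy against goosegrass was tested in a corn field following GB/T 17980.42-2000. Compounds formulated as 10% emulsifiable concentrates were diluted in water and sprayed post-emergence at 150 g(a.i.)/ha when corn had 2 to 5 leaves, with 4 replicates of 20 m^2 plots. Herbicidal activity was rated on a 1-9 scale by damage symptoms and severity.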"}, "[11]": {"test_system": "nutgrass flatsedge", "assay": "Field test for weed control in a corn field", "conditions": "150 g a.i./ha, after treatment", "method_in_brief": "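A corn field efficacy trial following GB/T 17980.42-2000 assessed post-emergence control of nutgrass flatsedge. Test compounds were formulated as 10% emulsifiable concentrates, diluted in water, and sprayed at 150 g(a.i.)/ha when the corn had 2 to 5 leaves. Each treatment had 4 replicates on 20 m^2 plots. Herbicidal activity was graded on a 1-9 scale by damage symptoms and severity.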"}, "[12]": {"test_system": "Convolvulus arvensis", "assay": "Field test for weed control in a corn field", "conditions": "150 g a.i./ha, after treatment", "method_in_brief": "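Field trial of weed control against Convolvulus arvensis in corn, run following GB/T 17980.42-2000. Test agents were formulated as 10% emulsifiable concentrates and sprayed in water at 150 g(a.i.)/ha when corn plants had 2 to 5 leaves. Each treatment was replicated 4 times on 20 m^2 plots, and 25% mesotrione oil dispersion served as the control agent.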"}, "[13]": {"test_system": "green bristlegrass", "assay": "Field test for weed control in a corn field", "conditions": "150 g a.i./ha, after treatment", "method_in_brief": "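Post-emergence weed control was tested in a corn field following GB/T 17980.42-2000. When the corn had 2 leaves to 5 leaves after sowing, 10% emulsifiable concentrates diluted in water were sprayed at 150 g(a.i.)/ha on 20 m^2 plots, four replicates per treatment. Effects on green bristlegrass were scored on a 1-9 damage scale relative to the blank control area.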"}, "[14]": {"test_system": "Chenopodium album", "assay": "Field test for weed control in a corn field", "conditions": "150 g a.i./ha, after treatment", "method_in_brief": "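A corn-field efficacy trial following GB/T 17980.42-2000 tested post-emergence control of Chenopodium album. Test compounds formulated as 10% emulsifiable concentrates were diluted in water and sprayed at 150 g(a.i.)/ha when the corn had 2 leaves to 5 leaves, on 20 m^2 plots with 4 replicates. Herbicidal activity was rated on a 1-9 scale by damage symptoms and severity.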"}, "[15]": {"test_system": "Digitaria sanguinalis", "assay": "Field test for weed control in a corn field", "conditions": "150 g a.i./ha, after treatment", "method_in_brief": "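Field trial in a corn field following GB/T 17980.42-2000. Test compounds were formulated as 10% emulsifiable concentrates, diluted in water and sprayed post-emergence at 150 g(a.i.)/ha when corn had 2 to 5 leaves, with 4 replicates on 20 m^2 plots. Control of Digitaria sanguinalis was scored on a 1-9 scale based on weed damage relative to the untreated blank area.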"}, "[16]": {"test_system": "Portulaca oleracea", "assay": "Field test for weed control in a corn field", "conditions": "150 g a.i./ha, after treatment", "method_in_brief": "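Field efficacy trial in corn following GB/T 17980.42-2000. Test compounds were prepared as 10% emulsifiable concentrates, diluted in water, and sprayed at 150 g(a.i.)/ha when corn had 2 to 5 leaves after sowing. Plots were 20 m^2 with 4 replicates per treatment. Herbicidal activity was scored on a 1-9 scale from weed damage symptoms and severity.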"}, "[17]": {"test_system": "Amaranthus retroflexus", "assay": "Field test for weed control in a corn field", "conditions": "150 g a.i./ha, 30 days after treatment", "method_in_brief": "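Field efficacy trial in a corn field following GB/T 17980.42-2000. Test compounds were formulated as 10% emulsifiable concentrates, diluted in water and sprayed post-emergence when corn had 2 to 5 leaves. Each treatment covered 20 m^2 with 4 replicates. A 25% mesotrione oil dispersion served as control. Damage to Amaranthus retroflexus was rated on a 1-9 scale against untreated blank plots.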"}, "[18]": {"test_system": "Acalypha australis", "assay": "Field test for weed control in a corn field", "conditions": "150 g a.i./ha, after treatment", "method_in_brief": "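Post-emergence field trial in a corn field following GB/T 17980.42-2000. Test compounds were formulated as 10% emulsifiable concentrates, diluted in water, and sprayed at 150 g(a.i.)/ha when corn had 2 to 5 leaves, with 4 replicates on 20 m^2 plots. Mesotrione 25% oil dispersion served as the control agent. Weed control was scored on a 1-9 scale.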"}, "[19]": {"test_system": "Barnyard grass", "assay": "Field test for weed control in a corn field", "conditions": "150 g a.i./ha, 30 days after treatment", "method_in_brief": "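Corn-field efficacy trial following GB/T 17980.42-2000. Test compounds were formulated as 10% emulsifiable concentrates, diluted in water and sprayed post-emergence at 150 g(a.i.)/ha when corn had 2 to 5 leaves. Each treatment was replicated 4 times on 20 m^2 plots. Barnyard grass control was rated on a 1-9 damage scale.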"}, "[20]": {"test_system": "Solanum nigrum", "assay": "Field test for weed control in a corn field", "conditions": "150 g a.i./ha, 30 days after treatment", "method_in_brief": "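Post-emergence weed control was tested in a corn field following GB/T 17980.42-2000. Compounds were made into 10% emulsifiable concentrates, diluted in water and sprayed at 150 g(a.i.)/ha when corn had 2 to 5 leaves after sowing, in 20 m^2 plots with 4 replicates. Effects on Solanum nigrum were graded on a 1-9 scale relative to the blank control area.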"}, "[21]": {"test_system": "green bristlegrass", "assay": "Herbicidal activity test for indoor post-emergence spraying on stems and leaves", "conditions": "150 g a.i./ha, visual inspection 21 days after treatment", "method_in_brief": "(§3)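 Run per NY/T 1155.4-2006: weeds sown, grown in greenhouse, then sprayed post-emergence on stems and leaves. Effect scored visually 21 days after treatment on a graded level scale relative to weed in the blank control area.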"}, "[22]": {"test_system": "Digitaria sanguinalis", "assay": "Herbicidal activity test for indoor post-emergence spraying on stems and leaves", "conditions": "150 g a.i./ha, visual inspection 21 days after treatment", "method_in_brief": "as §3"}, "[23]": {"test_system": "Amaranthus retroflexus", "assay": "Herbicidal activity test for indoor post-emergence spraying on stems and leaves", "conditions": "150 g a.i./ha, visual inspection 21 days after treatment", "method_in_brief": "as §3"}, "[24]": {"test_system": "Barnyard grass", "assay": "Herbicidal activity test for indoor post-emergence spraying on stems and leaves", "conditions": "150 g a.i./ha, visual inspection 21 days after treatment", "method_in_brief": "as §3"}, "[25]": {"test_system": "Humulus scandens", "assay": "Herbicidal activity test for indoor post-emergence spraying on stems and leaves", "conditions": "150 g a.i./ha, visual inspection 21 days after treatment", "method_in_brief": "as §3"}, "[26]": {"test_system": "Piemarker", "assay": "Herbicidal activity test for indoor post-emergence spraying on stems and leaves", "conditions": "150 g a.i./ha, visual inspection 21 days after treatment", "method_in_brief": "as §3"}}}
{"compound": "COc1ccccc1C(=O)NCc1cccc(C)c1", "note": "[Compound A14, 2-methoxy-N-(3-methylbenzyl)benzamide]", "values": [{"measurement": "Herbicidal Activity Digitaria sanguinalis", "setting": "[1]", "value": "2 (equivalent to 0 to 2.5% of the weed in the blank control area)"}, {"measurement": "Herbicidal Activity Amaranthus retroflexus", "setting": "[2]", "value": "2 (equivalent to 0 to 2.5% of the weed in the blank control area)"}, {"measurement": "Herbicidal Activity Humulus scandens", "setting": "[3]", "value": "3 (equivalent to 2.6 to 5% of the weed in the blank control area)"}, {"measurement": "Herbicidal activity 15 days after treatment Broadleaf weed", "setting": "[4]; 15 days after treatment", "value": 1}, {"measurement": "Herbicidal activity 30 days after treatment Broadleaf weed", "setting": "[4]; 30 days after treatment", "value": "2 (equivalent to 0 to 2.5% of the weed in the blank control area)"}, {"measurement": "Herbicidal activity 15 days after treatment Gramineae", "setting": "[5]; 15 days after treatment", "value": 1}, {"measurement": "Herbicidal activity 30 days after treatment Gramineae", "setting": "[5]; 30 days after treatment", "value": "2 (equivalent to 0 to 2.5% of the weed in the blank control area)"}, {"measurement": "Herbicidal activity 15 days after treatment Cyperaceae", "setting": "[6]; 15 days after treatment", "value": 1}, {"measurement": "Herbicidal activity 30 days after treatment Cyperaceae", "setting": "[6]; 30 days after treatment", "value": "2 (equivalent to 0 to 2.5% of the weed in the blank control area)"}, {"measurement": "Herbicidal Activity Green bristlegrass", "setting": "[7]", "value": 1}, {"measurement": "Herbicidal Activity Barnyard grass", "setting": "[8]", "value": "2 (equivalent to 0 to 2.5% of the weed in the blank control area)"}, {"measurement": "Herbicidal Activity Piemarker", "setting": "[9]", "value": 1}, {"measurement": "Post-emergence weed control effect, Goose grass", "setting": "[10]", "value": 1}, {"measurement": "Post-emergence weed control effect, Nutgrass flatsedge", "setting": "[11]", "value": "2 (equivalent to 0 to 2.5% of the weed in the blank control area)"}, {"measurement": "Post-emergence weed control effect, Convolvulus arvensis", "setting": "[12]", "value": 1}, {"measurement": "Post-emergence weed control effect, Green bristlegrass", "setting": "[13]", "value": 1}, {"measurement": "Post-emergence weed control effect, Chenopodium album", "setting": "[14]", "value": 1}, {"measurement": "Post-emergence weed control effect, Digitaria sanguinalis", "setting": "[15]", "value": "2 (equivalent to 0 to 2.5% of the weed in the blank control area)"}, {"measurement": "Post-emergence weed control effect, Portulaca oleracea", "setting": "[16]", "value": 1}, {"measurement": "Post-emergence weed control effect, Amaranthus retroflexus", "setting": "[17]", "value": 1}, {"measurement": "Post-emergence weed control effect, Acalypha australis", "setting": "[18]", "value": "2 (equivalent to 0 to 2.5% of the weed in the blank control area)"}, {"measurement": "Post-emergence weed control effect, Barnyard grass", "setting": "[19]", "value": 1}, {"measurement": "Post-emergence weed control effect, Solanum nigrum", "setting": "[20]", "value": "2 (equivalent to 0 to 2.5% of the weed in the blank control area)"}, {"measurement": "Herbicidal Activity Green bristlegrass", "setting": "[21]", "value": 1}, {"measurement": "Herbicidal Activity Digitaria sanguinalis", "setting": "[22]", "value": 1}, {"measurement": "Herbicidal Activity Amaranthus retroflexus", "setting": "[23]", "value": 1}, {"measurement": "Herbicidal Activity Barnyard grass", "setting": "[24]", "value": "2 (equivalent to 0 to 2.5% of the weed in the blank control area)"}, {"measurement": "Herbicidal Activity Humulus scandens", "setting": "[25]", "value": 1}, {"measurement": "Herbicidal Activity Piemarker", "setting": "[26]", "value": 1}]}
